Source: patent US20040044006A1, “Methods of use of quinolone compounds against pneumococcal and haemophilus bacteria” (priority 1999, published 2004)
Values after ≈ are worked out from the molar mass of the structure shown. Read-outs that look alike come from different tables or passages of the source.

Legend:
[1] = tested on: quinolone-resistant Haemophilus influenzae strains; assay: Microdilution MIC determination in HTM for quinolone-resistant Haemophilus influenzae strains; assay type: cell-based; conditions: 9 quinolone-resistant Haemophilus influenzae strains
Method in brief: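 Broth microdilution in HTM, inoculum from 24 h chocolate agar colonies by direct suspension to a final 3-8×10^5 CFU/ml. Incubated in ambient air at 35° C. for 20-24 hours; MIC read as the lowest concentration with no growth.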

[2] = tested on: quinolone resistant pneumococci; assay: Determination of efflux mechanism: MICs in the presence and absence of reserpine; assay type: cell-based, Streptococcus pneumoniae
Method: MICs were determined in the presence and absence of 10 μg/ml of reserpine (Sigma Chemicals, St. Louis, Mo.) as known in the art.
MICs were determined in the presence and absence of […] of reserpine (Sigma Chemicals, St. Louis, Mo., USA) as described previously (Brenwald, et al., Antimicrob. Agents Chemother. 42:2039-2035, 1998 and Davies, et al., Antimicrob. Agents Chemother. 43:1177-1182S, 1999).

[3] = tested on: pneumococci with ciprofloxacin MICs ≧8 μg/ml; assay: Quinolone agar dilution MICs of 28 ciprofloxacin resistant pneumococcal strains, correlated with QRDR mutations; assay type: cell-based, Streptococcus pneumoniae
Method: Additionally these strains were tested for mutations in parC, gyrA, parE, and gyrB (Pan, et al. Antimicrob. Agents Chemother. 40:2321-2326, 1996) and for efflux mechanism (Brenwald, et ail., Antimicrob. Agents Chemother. 42:2032-2035, 1998).
Gemifloxacin susceptibility powder was obtained from SmithKline Beecham Laboratories, Harlow, UK. Agar dilution methodology was performed on 28 strains as described previously (M. R. Jacobs, Clin. Infect. Dis. 15: 119-127, […] and M. R. Jacobs, Rev. Med. Microbiol. 6:77-93, 1995), using Mueller-Hinton altar (BBL Microbiology Systems, Cockeysville, Md.) supplemented with 5% sheep blood. Standard quality control strains, including Streptococcus pneumoniae ATCC 49619, were included in each run of agar dilution MICs.

pneumococcal strains = assay: Microbroth dilution MICs of strains tested by time-kill and PAE; assay type: cell-based; conditions: Streptococcus pneumoniae, read-out: Microdilution MIC
Method in brief: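 S. pneumoniae ATCC 49619 served as control in each run. For the 12 time-kill and 6 PAE strains, MICs came from NCCLS microbroth dilution using cation-adjusted Mueller-Hinton broth plus 5% lysed defibrinated horse blood.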

[4] = agar dilution, 28 strains with ciprofloxacin MICs ≧8.0 μg/ml

Cc1c(F)c(N2CCNC(C)C2)cc2c1c(=O)c(C(=O)O)cn2C1CC1 (centres unmarked) [Grepafloxacin, grepafloxacin]
MIC50 [1]: 1 µg/mL (≈ 2.78 µM)
MIC Range [1]: 0.25 to 4.0 µg/mL
lower MICs in the presence of reserpine, fold range over affected strains ([2]; 28 quinolone resistant strains, 10 μg/ml reserpine): 2 ×
number of strains with lower MICs in the presence of reserpine ([2]; of 28 quinolone resistant strains, 10 μg/ml reserpine): 3 strains
Number of dilutions decrease after incubation with reserpine ([2]; strain 5): 2X
lower MIC in the presence of reserpine (efflux mechanism) ([2]; strain 5, 10 μg/ml reserpine): 2X
Number of dilutions decrease after incubation with reserpine ([2]; strain 12): 2X
lower MIC in the presence of reserpine (efflux mechanism) ([2]; strain 12, 10 μg/ml reserpine): 2X
Number of dilutions decrease after incubation with reserpine ([2]; strain 28): 2X
lower MIC in the presence of reserpine (efflux mechanism) ([2]; strain 28, 10 μg/ml reserpine): 2X
MIC50 ([3]; Streptococcus pneumoniae): 4 µg/mL (≈ 11.1 µM)
MIC90 ([3]; Streptococcus pneumoniae): 8 µg/mL (≈ 22.3 µM)
MIC ([3]; Streptococcus pneumoniae, read-out: MICs in strains with three or four QRDR mutations, 20 strains, bound holds in all 20 (ciprofloxacin, levofloxacin, sparfloxacin), 19 (grepafloxacin), 10 (trovafloxacin), 18 (gemifloxacin)): > 1 µg/mL
MIC ([3]; Streptococcus pneumoniae, read-out: MICs in strains with three or four QRDR mutations, 21 strains, bound holds in all 21 (ciprofloxacin, levofloxacin, sparfloxacin), 20 (grepafloxacin), 11 (trovafloxacin), 19 (gemifloxacin)): ≥ 1 µg/mL
MIC ([3]; Streptococcus pneumoniae, strain 1, ParC S79-F, ParE I460-V, GyrA S81-F, GyrB None): 4 µg/mL (≈ 11.1 µM)
MIC ([3]; Streptococcus pneumoniae, strain 1, ParC S79-F, ParE I460-V, GyrA S83-F, GyrB None): 4 µg/mL (≈ 11.1 µM)
MIC ([3]; Streptococcus pneumoniae, strain 2, ParC S79-Y, ParE I460-V, GyrA None, GyrB None): 0.5 µg/mL (≈ 1.39 µM)
MIC ([3]; Streptococcus pneumoniae, strain 3, ParC D83-N, ParE I460-V, GyrA S81-F, GyrB None): 0.5 µg/mL (≈ 1.39 µM)
MIC ([3]; Streptococcus pneumoniae, strain 3, ParC D83-N, ParE I460-V, GyrA S83-F, GyrB None): 0.5 µg/mL (≈ 1.39 µM)
MIC ([3]; Streptococcus pneumoniae, strain 4, ParC S79-F, ParE I460-V, GyrA S81-F, GyrB None): 1 µg/mL (≈ 2.78 µM)
MIC ([3]; Streptococcus pneumoniae, strain 4, ParC S79-F, ParE I460-V, GyrA S83-F, GyrB None): 1 µg/mL (≈ 2.78 µM)
MIC ([3]; Streptococcus pneumoniae, strain 5, ParC R95-C, ParE D435-N, GyrA S81-F, GyrB None): 1 µg/mL (≈ 2.78 µM)
MIC ([3]; Streptococcus pneumoniae, strain 5, ParC R95-C, ParE D435-N, GyrA S83-F, GyrB None): 1 µg/mL (≈ 2.78 µM)
MIC ([3]; Streptococcus pneumoniae, strain 6, ParC S79-Y, ParE I460-V, GyrA E85-K, GyrB None): 2 µg/mL (≈ 5.56 µM)
MIC ([3]; Streptococcus pneumoniae, strain 6, ParC S79-Y, ParE I460-V, GyrA E87-K, GyrB None): 2 µg/mL (≈ 5.56 µM)
MIC ([3]; Streptococcus pneumoniae, strain 7, ParC None, ParE I460-V, GyrA None, GyrB None): 1 µg/mL (≈ 2.78 µM)
MIC ([3]; Streptococcus pneumoniae, strain 8, ParC S79-Y, ParE None, GyrA None, GyrB None): 1 µg/mL (≈ 2.78 µM)
MIC ([3]; Streptococcus pneumoniae, strain 9, ParC S79-Y, ParE None, GyrA None, GyrB None): 1 µg/mL (≈ 2.78 µM)
MIC ([3]; Streptococcus pneumoniae, strain 10, ParC S79-F, ParE I460-V, GyrA S81-C, GyrB None): 2 µg/mL (≈ 5.56 µM)
MIC ([3]; Streptococcus pneumoniae, strain 10, ParC S79-F, ParE I460-V, GyrA S83-C, GyrB None): 2 µg/mL (≈ 5.56 µM)
MIC ([3]; Streptococcus pneumoniae, strain 11, ParC S79-F, ParE I460-V, GyrA S81-F, GyrB None): 4 µg/mL (≈ 11.1 µM)
MIC ([3]; Streptococcus pneumoniae, strain 11, ParC S79-F, ParE I460-V, GyrA S83-F, GyrB None): 4 µg/mL (≈ 11.1 µM)
MIC ([3]; Streptococcus pneumoniae, strain 12, ParC S79-F, ParE I460-V, GyrA None, GyrB D435-N): 4 µg/mL (≈ 11.1 µM)
MIC ([3]; Streptococcus pneumoniae, strain 13, ParC S79-F, ParE I460-V, GyrA None, GyrB E474-K): 2 µg/mL (≈ 5.56 µM)
MIC ([3]; Streptococcus pneumoniae, strain 14, ParC S79-F, ParE I460-V, GyrA S81-F, GyrB None): 4 µg/mL (≈ 11.1 µM)
MIC ([3]; Streptococcus pneumoniae, strain 14, ParC S79-F, ParE I460-V, GyrA S83-F, GyrB None): 4 µg/mL (≈ 11.1 µM)
MIC ([3]; Streptococcus pneumoniae, strain 15, ParC 79-F, ParE I460-V, GyrA S83-F, GyrB None): 4 µg/mL (≈ 11.1 µM)
MIC ([3]; Streptococcus pneumoniae, strain 15, ParC S79-F, ParE I460-V, GyrA S81-F, GyrB None): 4 µg/mL (≈ 11.1 µM)
MIC ([3]; Streptococcus pneumoniae, strain 16, ParC S79-F, ParE I460-V, GyrA S81-F, GyrB None): 4 µg/mL (≈ 11.1 µM)
MIC ([3]; Streptococcus pneumoniae, strain 16, ParC S79-F, ParE I460-V, GyrA S83-F, GyrB None): 4 µg/mL (≈ 11.1 µM)
MIC ([3]; Streptococcus pneumoniae, strain 17, ParC D83-N, ParE None, GyrA S81-F, GyrB None): 4 µg/mL (≈ 11.1 µM)
MIC ([3]; Streptococcus pneumoniae, strain 17, ParC D83-N, ParE None, GyrA S83-F, GyrB None): 4 µg/mL (≈ 11.1 µM)
MIC ([3]; Streptococcus pneumoniae, strain 18, ParC S79-F, ParE I460-V, GyrA S81-F, GyrB None): 4 µg/mL (≈ 11.1 µM)
MIC ([3]; Streptococcus pneumoniae, strain 18, ParC S79-F, ParE I460-V, GyrA S83-F, GyrB None): 4 µg/mL (≈ 11.1 µM)
MIC ([3]; Streptococcus pneumoniae, strain 19, ParC S79-F, ParE I460-V, GyrA S81-F, GyrB None): 4 µg/mL (≈ 11.1 µM)
MIC ([3]; Streptococcus pneumoniae, strain 19, ParC S79-F, ParE I460-V, GyrA S83-F, GyrB None): 4 µg/mL (≈ 11.1 µM)
MIC ([3]; Streptococcus pneumoniae, strain 20, ParC S79-F, ParE I460-V, GyrA E85-K, GyrB None): 4 µg/mL (≈ 11.1 µM)
MIC ([3]; Streptococcus pneumoniae, strain 20, ParC S79-F, ParE I460-V, GyrA E87-K, GyrB None): 4 µg/mL (≈ 11.1 µM)
MIC ([3]; Streptococcus pneumoniae, strain 21, ParC S79-F, ParE I460-V, GyrA S81-F, GyrB None): 4 µg/mL (≈ 11.1 µM)
MIC ([3]; Streptococcus pneumoniae, strain 21, ParC S79-F, ParE I460-V, GyrA S83-F, GyrB None): 4 µg/mL (≈ 11.1 µM)
MIC ([3]; Streptococcus pneumoniae, strain 22, ParC S79-F, ParE I460-V, GyrA S81-Y, GyrB None): 4 µg/mL (≈ 11.1 µM)
MIC ([3]; Streptococcus pneumoniae, strain 22, ParC S79-F, ParE I460-V, GyrA S83-Y, GyrB None): 4 µg/mL (≈ 11.1 µM)
MIC50 [3, 4]: 4.0 µg/mL (≈ 11.1 µM)
MIC90 [3, 4]: 8.0 µg/mL (≈ 22.3 µM)
MIC Range [3, 4]: 0.5 to 16.0 µg/mL
MIC Range ([3]; agar dilution, 28 strains with ciprofloxacin MICs ≧8.0 μg/ml, listed as grepafloxacin): 0.5 to 16 µg/mL
MIC (pneumococcal strains; strain 1 (S) penicillin susceptible): 0.06 µg/mL (≈ 0.167 µM)
MIC (pneumococcal strains; strain 2 (S) penicillin susceptible): 0.06 µg/mL (≈ 0.167 µM)
MIC (pneumococcal strains; strain 3 (S) penicillin susceptible, quinolone-resistant): 16 µg/mL (≈ 44.5 µM)
MIC (pneumococcal strains; strain 4 (S) penicillin susceptible, quinolone-resistant): 8 µg/mL (≈ 22.3 µM)
MIC (pneumococcal strains; strain 5 (I) penicillin intermediate): 0.125 µg/mL (≈ 0.348 µM)
MIC (pneumococcal strains; strain 6 (I) penicillin intermediate): 0.125 µg/mL (≈ 0.348 µM)
MIC (pneumococcal strains; strain 7 (I) penicillin intermediate): 0.125 µg/mL (≈ 0.348 µM)
MIC (pneumococcal strains; strain 8 (I) penicillin intermediate): 0.125 µg/mL (≈ 0.348 µM)
MIC (pneumococcal strains; strain 9 (R) penicillin resistant): 0.25 µg/mL (≈ 0.696 µM)
MIC (pneumococcal strains; strain 10 (I)): 0.125 µg/mL (≈ 0.348 µM)
MIC (pneumococcal strains; strain 11 (R) penicillin resistant): 0.125 µg/mL (≈ 0.348 µM)
MIC (pneumococcal strains; strain 12 (R) penicillin resistant): 0.25 µg/mL (≈ 0.696 µM)
